For twelve molecules, EC50 results are on record in BindingDB's records for doi:10.7270/Q2K935WV (Nmmlsc, 2008).

A word on the EC50: it is the concentration that produces a half-maximal response.

The target in the first test is Isoform Bcl-X(L) of Bcl-2-like protein 1 (Bcl-xL) (Homo sapiens, UniProt Q07817). In words: Bim-Bcl-XL interaction inhibitors, potency, dose response, biochemical, multiplexed, bead flow cytometry, human Bcl-XL (AID 1322). As to conditions: inactive by the depositor's call; pH 7.4; 4 °C.
Isoform Bcl-X(L) of Bcl-2-like protein 1 (Bcl-xL), sequence (Q07817 whole entry G70A, canonical isoform): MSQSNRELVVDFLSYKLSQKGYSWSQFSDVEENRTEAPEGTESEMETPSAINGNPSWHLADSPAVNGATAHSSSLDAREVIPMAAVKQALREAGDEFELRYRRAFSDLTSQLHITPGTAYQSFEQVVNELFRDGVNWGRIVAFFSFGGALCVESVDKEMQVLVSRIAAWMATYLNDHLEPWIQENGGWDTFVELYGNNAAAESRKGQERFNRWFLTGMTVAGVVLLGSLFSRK
With `COc1ccc(OC)c(-n2c(=O)c3ccccc3c3ccccc3c2=O)c1` [SMR000236434], the midpoint of the response, the EC50, lay at 17.6 µM. In other words, the double-digit micromolar range.

As for `O=C1c2ccccc2-c2onc3ccc(N4CCCC4)c1c23` [SMR000279741], the half-maximal effective concentration (EC50) was 13.1 µM.

Take `O=C(CSc1ccc2nnc(-c3ccncc3)n2n1)Nc1nccs1` [SMR000320332]: the response was half-maximal at 22.2 µM (EC50). This EC50 lies about 1.7-fold higher than the previous one.

Turning to `O=C(Nc1cccc(Cl)c1)Nc1ccnc(-c2cccnc2)n1` [SMR000337179], a half-maximal response (EC50) required 1.14 µM.

As to `O=c1c2c(-c3ccccc3)csc2nc2c3ccccc3c(NCCN3CCOCC3)nn12` [SMR000352519], the response was half-maximal at 0.41 µM (EC50).

The molecule `Cc1ccnc(Nc2nc(-c3c(C)nc4sccn34)cs2)c1` [[4-(6-Methyl-imidazo[2,1-b]thiazol-5-yl)-thiazol-2-yl]-(4-methyl-pyridin-2-yl)-amine] came in with an EC50 of 24 µM.

The molecule `CCOC(=O)c1nc(Nc2ccc(C(=O)OC)cc2)c2ccccc2n1` [ethyl 4-(4-methoxycarbonylanilino)quinazoline-2-carboxylate] displayed a concentration for a half-maximal effect (EC50) of 13.5 µM.

`CN(N=Cc1ccncc1)C1=NS(=O)(=O)c2ccccc21` [isonicotinaldehyde (1,1-dioxido-1,2-benzisothiazol-3-yl)(methyl)hydrazone] yielded an EC50 of 2.64 µM.

Still in this test, the particulars now being: pH 7.4; 4 °C.
In turn, `Nc1c(C(=O)NCC2CCCO2)sc2nc3c(c(-c4ccco4)c12)CC/C3=C\c1ccco1` (configuration not stated) [SMR000259502] returned an EC50 of 6.11 µM.

The molecule `Nc1c(C(=O)NC2CC2)sc2nc3c(c(-c4ccco4)c12)CC/C3=C/c1ccco1` [SMR000259554] returned an EC50 of 9.01 µM.

Molecule `Cc1nnc2ccc(-c3cccc(NC(=O)c4ccco4)c3)nn12` [SMR000324305] yielded a half-maximal effective concentration (EC50) of 5.17 µM.

Turning to `CCN1/C(=C/C(C)=C/c2sc3ccccc3[n+]2CC)Sc2ccccc21` [SMR000354813], the EC50 worked out at 26.4 µM.
